Data from ChEMBL document CHEMBL1201862, “PubChem BioAssay data set” (2004).
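Grown in 96-well plates, cells were treated for 48 hours with each compound at five concentrations. Insufficient inhibition: endpoint recorded as highest concentration tested. Abbreviation: GI50, concentration required for 50% inhibition of growth.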 Active and inactive are the calls of the source. Cut-off read from the data, not from the text of the source: active = GI50 up to about 1.1 µM and inactive = higher.

Tests used:
Experiment in all cases: NCI tumour cell line growth inhibition, 48 h
A549 = tested on: A549
ACHN = tested on: ACHN
CAKI-1 = tested on: CAKI-1
CCRF-CEM = tested on: CCRF-CEM
COLO 205 = tested on: COLO 205
HOP-92 = tested on: HOP-92
IGROV-1 = tested on: IGROV-1
MDA-N = tested on: MDA-N
MOLT-4 = tested on: MOLT-4
NCI-H522 = tested on: NCI-H522
OVCAR-3 = tested on: OVCAR-3
OVCAR-5 = tested on: OVCAR-5
OVCAR-8 = tested on: OVCAR-8
PC-3 = tested on: PC-3
SK-MEL-28 = tested on: SK-MEL-28
SK-MEL-2 = tested on: SK-MEL-2
SNB-19 = tested on: SNB-19
UACC-62 = tested on: UACC-62
MCF7 = tested on: MCF7
SF-539 = tested on: SF-539

Measured: GI50

O=C1OC(c2ccccc2)=N/C1=C\c1ccc(F)cc1
inactive: A549 > 100 µM | ACHN > 100 µM | CAKI-1 > 100 µM | CCRF-CEM 35.8 µM | COLO 205 > 100 µM | HOP-92 > 100 µM | IGROV-1 71.3 µM | MDA-N > 100 µM | MOLT-4 50.6 µM | NCI-H522 40.5 µM | OVCAR-3 22.2 µM | OVCAR-5 > 100 µM | OVCAR-8 47 µM | PC-3 > 100 µM | SK-MEL-28 > 100 µM | SK-MEL-2 > 100 µM | SNB-19 > 100 µM | UACC-62 > 100 µM

Cc1c(C)c2c(c(N)c1C#N)C(=O)N(Cc1ccc(S(N)(=O)=O)cc1)C2=O
inactive: A549 > 58.6 µM | ACHN > 42.6 µM | CAKI-1 > 100 µM | CCRF-CEM > 100 µM | COLO 205 > 100 µM | HOP-92 13.6 µM | IGROV-1 > 38.4 µM | MCF7 > 75 µM | MDA-N > 100 µM | MOLT-4 > 100 µM | OVCAR-3 > 41.5 µM | OVCAR-5 24.3 µM | OVCAR-8 4.65 µM | PC-3 > 64 µM | SF-539 > 34.4 µM | SK-MEL-28 > 100 µM | SK-MEL-2 > 50.1 µM | SNB-19 5.51 µM | UACC-62 > 100 µM

CCCCCC(/C=N/Nc1ccccc1)C(O)(C(F)(F)F)C(F)(F)F (stereo unspecified)
inactive: A549 > 100 µM | ACHN > 100 µM | CAKI-1 > 100 µM | CCRF-CEM 83.2 µM | COLO 205 > 100 µM | HOP-92 > 100 µM | IGROV-1 > 100 µM | MDA-N > 100 µM | MOLT-4 61.8 µM | NCI-H522 > 100 µM | OVCAR-3 > 100 µM | OVCAR-5 > 100 µM | OVCAR-8 > 100 µM | PC-3 > 100 µM | SF-539 > 100 µM | SK-MEL-28 > 100 µM | SK-MEL-2 > 100 µM | SNB-19 > 100 µM | UACC-62 > 100 µM

c1ccc2c[n+](CCCC[n+]3ccc4ccccc4c3)ccc2c1
inactive: A549 1.13 µM | ACHN > 100 µM | CAKI-1 > 100 µM | CCRF-CEM > 100 µM | COLO 205 > 100 µM | IGROV-1 > 100 µM | MCF7 > 100 µM | MDA-N > 100 µM | OVCAR-3 > 100 µM | OVCAR-5 > 100 µM | OVCAR-8 > 100 µM | PC-3 > 100 µM | SF-539 > 100 µM | SK-MEL-28 > 100 µM | SK-MEL-2 > 100 µM | SNB-19 21.8 µM | UACC-62 > 100 µM

CC(C)N(C(C)C)S(=O)(=O)CC12CCC(C/C1=N\O)C2 (stereo unspecified)
inactive: A549 > 100 µM | ACHN > 100 µM | CAKI-1 > 100 µM | CCRF-CEM > 100 µM | COLO 205 > 100 µM | IGROV-1 > 100 µM | MCF7 > 100 µM | MDA-N > 100 µM | MOLT-4 > 100 µM | NCI-H522 > 100 µM | OVCAR-3 > 100 µM | OVCAR-5 > 100 µM | OVCAR-8 > 100 µM | PC-3 > 100 µM | SF-539 > 100 µM | SK-MEL-28 > 100 µM | SK-MEL-2 > 100 µM | SNB-19 > 100 µM | UACC-62 > 100 µM

CN1CCc2c(sc3nc(Nc4ccccc4)n(N)c(=O)c23)C1
inactive: A549 > 100 µM | ACHN > 100 µM | CAKI-1 > 100 µM | CCRF-CEM 59.2 µM | COLO 205 42.8 µM | IGROV-1 > 100 µM | MCF7 51.4 µM | MDA-N > 100 µM | MOLT-4 65 µM | OVCAR-3 > 100 µM | OVCAR-5 > 100 µM | OVCAR-8 > 100 µM | PC-3 > 100 µM | SF-539 > 100 µM | SK-MEL-2 > 100 µM | SNB-19 > 100 µM | UACC-62 38.4 µM

COc1ccc(/C=N/Nc2nc3ccccc3c(=O)n2-c2ccccc2)cc1
inactive: A549 > 100 µM | ACHN > 100 µM | CAKI-1 > 100 µM | CCRF-CEM > 100 µM | COLO 205 > 100 µM | IGROV-1 > 100 µM | MCF7 3.61 µM | MDA-N > 100 µM | MOLT-4 > 100 µM | NCI-H522 > 100 µM | OVCAR-3 > 100 µM | OVCAR-5 > 100 µM | OVCAR-8 > 100 µM | PC-3 > 100 µM | SF-539 > 100 µM | SK-MEL-28 > 100 µM | SK-MEL-2 > 100 µM | SNB-19 > 100 µM | UACC-62 24.4 µM

O=C1CSC(c2c[nH]c3ccccc23)N1c1ccccc1[N+](=O)[O-] (stereo unspecified)
inactive: A549 > 100 µM | CCRF-CEM > 100 µM | COLO 205 > 100 µM | HOP-92 > 100 µM | IGROV-1 > 100 µM | MCF7 > 100 µM | MDA-N > 100 µM | MOLT-4 > 100 µM | NCI-H522 > 100 µM | OVCAR-3 > 100 µM | OVCAR-5 > 100 µM | OVCAR-8 > 100 µM | PC-3 > 100 µM | SF-539 > 100 µM | SK-MEL-28 > 100 µM | SNB-19 > 100 µM | UACC-62 > 100 µM

CCN1C/C(=C\c2ccc(Cl)cc2)c2[nH]c(=O)c(C#N)c(-c3ccc(Cl)cc3)c2C1
inactive: A549 > 100 µM | ACHN > 100 µM | CCRF-CEM 71.6 µM | COLO 205 > 100 µM | HOP-92 > 100 µM | IGROV-1 > 100 µM | MCF7 > 100 µM | MDA-N > 100 µM | MOLT-4 21.2 µM | OVCAR-3 > 100 µM | OVCAR-5 > 100 µM | PC-3 > 100 µM | SF-539 > 100 µM | SK-MEL-28 > 100 µM | SK-MEL-2 > 100 µM | SNB-19 > 100 µM | UACC-62 > 100 µM

CC1(C)[C@@H]2CC[C@@]1(C)[C@H](O)[C@@H]2SCc1ccccc1
inactive: A549 19 µM | ACHN 11.7 µM | CAKI-1 25.1 µM | CCRF-CEM 19 µM | COLO 205 17.8 µM | HOP-92 13.7 µM | IGROV-1 18.7 µM | MDA-N 18.9 µM | MOLT-4 16.5 µM | NCI-H522 15.2 µM | OVCAR-3 17.1 µM | OVCAR-5 17 µM | OVCAR-8 19.1 µM | PC-3 20.8 µM | SF-539 17.8 µM | SK-MEL-28 17.5 µM | SK-MEL-2 18.1 µM | SNB-19 16.8 µM | UACC-62 10.2 µM

O=C1CC(C(=O)N2CCCCC2)n2c(=O)n(-c3ccccc3)c(=O)n2C1 (stereo unspecified)
inactive: A549 > 100 µM | ACHN > 100 µM | CAKI-1 > 100 µM | COLO 205 > 100 µM | IGROV-1 > 100 µM | MCF7 > 100 µM | MDA-N > 100 µM | NCI-H522 > 100 µM | OVCAR-3 > 100 µM | OVCAR-5 > 100 µM | OVCAR-8 > 100 µM | PC-3 > 100 µM | SF-539 > 100 µM | SNB-19 > 100 µM | UACC-62 > 100 µM
